From patent publication US10947263B2, “Cyclic dinucleotides as anticancer agents” (BRISTOL-MYERS SQUIBB COMPANY, priority 2017, dated 2021)
Where two headings read alike, the source gives them in different places.

What was measured:
[1] = test system: STING / IRF pathway in THP1-Dual cells; test: STING THP1 Reporter Assay, IRF pathway (secreted Lucia luciferase, QUANTI-Luc); assay type: cell-based; conditions: 10% human plasma, 100% activation = 100 μM cGAMP, luciferase readout, read-out: THP1 Reporter Assays EC50 IRF3
Text: (§1) THP1-Dual™ cells were derived from the human THP-1 monocyte cell line by stable integration of two inducible reporter constructs. To this end, THP1-Dual™ cells allow the simultaneous study of the […], by monitoring the activity of SEAP, and the IRF pathway by assessing the activity of a secreted luciferase (Lucia). Both reporter proteins are readily measurable in the cell culture supernatant when using QUANTI-Blue™, a SEAP detection reagent, and QUANTI-Luc™, a luciferase detection reagent.
(§2) THP1-Dual™ cells induce the activation of NF-κB in response to STING agonists. They also trigger the IRF pathway upon stimulation with STING agonists, such as cGAMP. Here, the THP-1-Dual cells were used to assess STING binders for function on the cellular level.
(§3) Serial dilutions of compounds in DMSO were added to low volume 384 well plates at 100 nl/well using an ECHO acoustic dispenser (Labcyte, model 550) to achieve final starting concentration of 100 μM in cell suspension. THP-1 Dual™ STING reporter cells (Invivogen, Dual cells cat #THPD-nfis) were added to the plates with compounds at 15,000 cells in 10 μL per well in RPMI media (Gibco, cat #11875) containing 10% human plasma in a low volume 384-well black wall clear bottom tissue culture plate (Corning, cat #3542) for SEAP assay and low volume solid white plate (Corning, cat #3826) for luciferase assay. One column of the plate was reserved for treatment with cGAMP at 100 μM for 100% activation calculation and one column for no treatment (DMSO only) for baseline activation. Plates were then incubated in 37 OC incubator at 5% CO2 for 20 hours.
(§4) In the SEAP assay, […] 2× QuantiBlue (Invivogen, cat #Rep-qb2) is added to 384 well black plates seeded with THP1 cells and incubated at 37° C. for 2 hours. Plates were read on the Envision (Perkin Elmer) at 620 nm wavelength (OD620). In the luciferase assay, 5 μl of Quantiluc (Invivogen, Rep-qlc2) is added to white 384 well plates seeded with THP1 cells and read at 5 minutes on the Envision (Perkin Elmer) using a luminescence protocol (RLU). For both cell lines, 100% activation was determined by value (RLU) of THP-1 Dual STING cells stimulated with 100 μM cGAMP (Invivogen, cat #TLRL-NACGA23-5).

[2] = test system: STING / NF-κB pathway in THP1-Dual cells; test: STING THP1 Reporter Assay, NF-κB pathway (SEAP, QUANTI-Blue); assay type: cell-based; conditions: 10% human plasma, 100% activation = 100 μM cGAMP, SEAP readout, read-out: THP1 Reporter Assays EC50 NFkB
Text: as §1, §2, §3, §4

[3] = biological target: T1, STING WT (His-TVMV-S-hSTING(155-341)-H232R) (Homo sapiens, UniProt Q86WV6, H232R); test: STING HTRF binding assay (time resolved FRET competition), STING WT; conditions: 20 nM His-tagged STING WT cytoplasmic domain, 200 nM fluorescein-labeled cGAMP analog probe, one hour; read-out: HTRF Binding Assays IC50 WT
T1 construct: STING WT: His-TVMV-S-hSTING(155-341)-H232R
T1 sequence (Q86WV6 with tags, fused parts or gaps H232R): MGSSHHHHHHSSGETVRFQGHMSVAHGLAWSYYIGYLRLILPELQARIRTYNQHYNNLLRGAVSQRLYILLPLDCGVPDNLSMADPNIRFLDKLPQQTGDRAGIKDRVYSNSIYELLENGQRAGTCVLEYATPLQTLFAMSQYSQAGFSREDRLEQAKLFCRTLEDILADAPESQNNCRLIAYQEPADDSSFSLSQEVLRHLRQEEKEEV
Procedure: (§5) A time resolved FRET-based competition binding assay was used to assess test article binding to STING WT and STING AQ. His-tagged STING cytoplasmic domain (WT or AQ) at a concentration of 20 nM was incubated with 2.5 nM Tb-labeled anti-His antibody, test compound, and fluorescein-labeled cGAMP analog probe (BioLog cat. no. C195) at a concentration of 200 nM (STING WT) or 40 nM (STING AQ) in PBS containing 0.005% Tween-20 and 0.1% BSA for one hour. Fluorescence at 495 nm and 520 nm was measured using an EnVision microplate reader to quantify FRET between Tb-labeled anti-His antibody and fluorescein-labeled probe. Background was defined as the signal obtained in the absence of STING protein, and background subtracted FRET ratios were normalized to the maximum signal obtained in the absence of test compound. These values were converted to a percent inhibition. Percent inhibition was determined for test compounds at 11 concentrations. The IC50, defined as the concentration of competing test compound needed to reduce specific binding of the probe by 50%, was calculated using the 4 parameter logistic equation to fit the data
STING WT: His-TVMV-S-hSTING(155-341)-H232R • […] […] […] […] LRQEEKEEV (SEQ ID NO:1)

[4] = biological target: T2, STING AQ (His-TVMV-S-hSTING(155-341)-G230A-R293Q) (Homo sapiens, UniProt Q86WV6, G230A/H232R/R293Q); test: STING HTRF binding assay (time resolved FRET competition), STING AQ; conditions: 20 nM His-tagged STING AQ cytoplasmic domain, 40 nM fluorescein-labeled cGAMP analog probe, one hour; read-out: HTRF Binding Assays IC50 AQ
T2 construct: STING AQ: His-TVMV-S-hSTING(155-341)-G230A-R293Q
T2 sequence (Q86WV6 with tags, fused parts or gaps G230A/H232R/R293Q): as the sequence (Q86WV6 with tags, fused parts or gaps H232R) above, with G99A, R162Q counted along it
Procedure: as §5
STING AQ: His-TVMV-S-hSTING(155-341)-G230A-R293Q • […] […] […] […] LRQEEKEEV (SEQ ID NO:2)

| SMILES | EC50 ([1]; Homo sapiens, THP1-Dual, 20 h) [nM] | EC50 ([2]; Homo sapiens, THP1-Dual, 20 h) [nM] | IC50 [3] [nM] | IC50 [4] [nM] | EC50 ([1]; 20 hours) [nM] | EC50 ([2]; 20 hours) [nM] |
| --- | --- | --- | --- | --- | --- | --- |
| Nc1ncnc2c1ncn2[C@@H]1O[C@@H]2COP(=O)(O)O[C@@H]3[C@H](O)[C@@H](COP(=O)(S)O[C@H]2[C@H]1O)O[C@H]3n1nnc2c([N+](=O)[O-])cccc21 (stereo partly drawn) [Example 18-1, (1R,6R,8R,9R,10S,15R,17R,18R)-8-(6-amino-9H-purin-9-yl)-3,9,18-trihydroxy-17-(4-nitro-1H-1,2,3-benzotriazol-1-yl)-12-sulfanyl-2,4,7,11,13,16-hexaoxa-3λ^5,12λ^5-diphosphatricyclo[13.2.1.0^6,10]octadecane-3,12-dione] | > 100000 | > 100000 | > 100000 | 66900 | – | – |
| Nc1ncnc2c1ncn2[C@@H]1O[C@@H]2COP(=O)(S)O[C@@H]3[C@H](O)[C@@H](COP(=O)(S)O[C@H]2[C@H]1F)O[C@H]3n1nnc2c([N+](=O)[O-])cccc21 (single isomer, unassigned) [Example 7-2] | – | – | 240 | 40 | 28000 | 64000 |
| Nc1ncnc2c1ncn2[C@@H]1O[C@@H]2COP(=O)(S)O[C@@H]3[C@H](O)[C@@H](COP(=O)(S)O[C@H]2[C@H]1F)O[C@H]3n1nnc2c([N+](=O)[O-])cccc21 (single isomer, unassigned) [Example 7-3] | – | – | 60 | 10 | 7200 | 15300 |
| Nc1ncnc2c1ncn2[C@@H]1O[C@@H]2COP(=O)(S)O[C@@H]3[C@H](O)[C@@H](COP(=O)(S)O[C@H]2[C@H]1F)O[C@H]3n1nnc2c(C(F)(F)F)cccc21 (single isomer, unassigned) [Example 9-1] | – | – | 20 | 4 | 800 | 2200 |
| Nc1ncnc2c1ncn2[C@@H]1O[C@@H]2COP(=O)(O)O[C@@H]3[C@H](O)[C@@H](COP(=O)(O)O[C@H]2[C@H]1O)O[C@H]3n1nnc2c([N+](=O)[O-])cccc21 [Example 2, (1R,6R,8R,9R,10S,15R,17R, 18R)-8-(6-amino-9H-purin-9-yl)-3,9,12,18-tetrahydroxy-17-(4-nitro-1H-1,2,3-benzo-triazol-1-yl)-2,4,7,11,13,16-hexaoxa-3λ^5,12λ^5-diphospha-tricyclo[13.2.1.0^6,^10]octa-decane-3,12-dione] | 53000 | 80000 | 160 | 5 | – | – |
| O=[N+]([O-])c1cccc2c1nnn2[C@@H]1O[C@@H]2COP(=O)(S)O[C@H]3[C@@H](F)[C@H](n4cnc5c4ncn4ccnc54)O[C@@H]3COP(=O)(S)O[C@@H]1[C@@H]2O (single isomer, unassigned) [Example 15-1] | – | – | 20 | 10 | 1000 | 2100 |
| Nc1ncnc2c1ncn2[C@@H]1O[C@@H]2COP(=O)(S)O[C@@H]3[C@H](F)[C@@H](COP(=O)(S)O[C@H]2[C@H]1F)O[C@H]3n1nnc2c(N)cccc21 (single isomer, unassigned) [Example 12-1] | 1600 | 5400 | 80 | 10 | – | – |
| NC(=O)c1cccc2c1nnn2[C@@H]1O[C@@H]2COP(=O)(S)O[C@H]3[C@@H](F)[C@H](n4cnc5c(N)ncnc54)O[C@@H]3COP(=O)(S)O[C@@H]1[C@@H]2F (single isomer, unassigned) [Example 10-4] | – | – | 10 | 2 | 300 | 900 |
